Measurements as given in patent US12303474B2, “S-enantiomerically enriched compositions of beta blockers for treating amyotrophic lateral sclerosis” (priority 2013, dated 2025).
Like-named read-outs stand apart in the source and are kept apart here.

How the values were obtained:
[1] = system: G93A SOD1 B6SJL hybrid (G93A) model; test: Body weight and body composition (lean mass, fat mass; NMR scans) in G93A SOD1 transgenic mice; format: in vivo; details: for Average Δ body weight / Average Δ fat mass / Average Δ lean mass: per day alive after disease onset
Source text: (§1) Transgenic mice over-expressing a high copy number (25 copies) of mutated human SOD1 gene with a G93A point mutation, i.e., B6SJL-TgN [SOD1-G93A]1 Gur (G1H-G93A transgenic mice, JR2726; Hemizygote) (Gurney M E, et al., Science, 264, 1772-1775, 1994) (“G93A SOD1 B6SJL hybrid (G93A) model”), were used.
[…] […] There were 16 mice in the S-oxprenolol group.
The primary endpoint was survival, humanely defined as the ability of the animal to right itself in 30 seconds after being laid on its side. Secondary endpoints were body weight, body composition, spontaneous activity and food intake. Body weight of the animals was assessed weekly until onset of disease. Additionally, body composition (fat mass and lean body mass) was assessed using NMR scans (EchoMRI-100, Echo Medical Systems, Houston, USA) every 4 days. After onset of disease, body weight and body composition were assessed every two days until the end of the study. All personal handling the animals was strictly blinded to the randomized treatment allocation.
To study the effect of S-oxprenolol on body weight, body weight was monitored over time.
To study the effect of the test compounds on lean body mass, lean mass was determined at the end of the study.
To study the effect of the test compounds on fat mass, the fat mass were determined at the end of the study.
To study the effect of S-oxprenolol on body weight, body weight was monitored over time. […] The number of all mice in the population is indicated as “n” in at the bottom of FIGS. 20A-20C.
To study the effect of the test compounds on lean body mass, lean mass was determined at the end of the study. […] The number of all mice in the population is indicated as “n” in at the bottom of FIGS. 20D-20F.
To study the effect of the test compounds on fat mass, the fat mass were determined at the end of the study. […] The number of all mice in the population is indicated as “n” in at the bottom of FIGS. 20G-20I.

[2] = system: G93A SOD1 B6SJL hybrid (G93A) model; details: for Heart / gastrocnemius: end of study;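 as to HR survival (FIG. 14): dosing began after ALS onset in G93A SOD1 mice, with survival as the endpoint, defined humanely as the animal failing to regain upright posture within 30 s when placed sideways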;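 as to HR survival (FIG. 16): dosing began after ALS onset in G93A SOD1 mice, with survival as the endpoint, defined humanely as the animal failing to regain upright posture within 30 s when placed sideways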
Method: as §1
To study the effect of the test compounds on skeletal muscle atrophy, the skeletal muscle mass were determined at the end of the study.
The number of all mice in the population is indicated as “n” in at the bottom of FIGS. 21A-21C.
The number of all mice in the population is indicated as “n” in at the bottom of FIGS. 20D-20F.
The number of all mice in the population is indicated as “n” in at the bottom of FIGS. 21G-21I.

[3] = system: G93A SOD1 B6SJL hybrid (G93A) model; details: for HR survival (FIG. 14): all mice; for HR survival (FIG. 16): female mice; for HR survival (FIG. 15): male mice;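 as to HR survival (FIG. 14): dosing began after ALS onset in G93A SOD1 mice, with survival as the endpoint, defined humanely as the animal failing to regain upright posture within 30 s when placed sideways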;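 as to HR survival (FIG. 16): dosing began after ALS onset in G93A SOD1 mice, with survival as the endpoint, defined humanely as the animal failing to regain upright posture within 30 s when placed sideways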
Source text: To study the effect of S-oxprenolol on survival, survival was monitored over time.

[4] = system: G93A SOD1 B6SJL hybrid (G93A) model; test: Disease progression score (JAX SOP) in G93A SOD1 transgenic mice
Source text: The disease progression score is based on the JAX SOP (Ludolph A C, Bendotti C, Blaugrund E, Hengerer B, Loffler J P, Martin J, Meininger V, Meyer T, Moussaoui S, Robberecht W, Scott S, Silani V, Van Den Berg L H (ENMC Group For The Establishment Of Guidelines For The Conduct Of Preclinical And Proof Of Concept Studies In ALS/MND Models). 2007, which is incorporated by reference).

[5] = 20 mg/kg/day vs. S-Oxprenolol (20)

C=CCOc1ccccc1OC[C@H](O)CNC(C)C [R-oxprenolol, (R)-1-(2-(allyloxy)phenoxy)-3-(isopropylamino)propan-2-ol]
Δ body weight ([1]; all mice, 10 mg/kg/d): -6.36 ± 0.39 g
Δ fat mass ([1]; all mice, 10 mg/kg/d): -1.71 ± 0.15 g
Δ lean mass ([1]; all mice, 10 mg/kg/d): -5.11 ± 0.32 g
Average Δ body weight ([1]; all mice, 10 mg/kg/d): -146.1 ± 11.1 mg/day
Average Δ fat mass ([1]; all mice, 10 mg/kg/d): -38.3 ± 4.2 mg/day
Average Δ lean mass ([1]; all mice, 10 mg/kg/d): -125.8 ± -12.7 mg/day
Δ body weight ([1]; all mice, 20 mg/kg/d): -5.21 ± 0.39 g
Δ fat mass ([1]; all mice, 20 mg/kg/d): -1.59 ± 0.15 g
Δ lean mass ([1]; all mice, 20 mg/kg/d): -4.60 ± 0.28 g
Average Δ body weight ([1]; all mice, 20 mg/kg/d): -111.0 ± 9.4 mg/day
Average Δ fat mass ([1]; all mice, 20 mg/kg/d): -32.6 ± 3.0 mg/day
Average Δ lean mass ([1]; all mice, 20 mg/kg/d): -96.6 ± 6.4 mg/day
Δ body weight ([1]; female mice, 10 mg/kg/d): -6.19 ± 0.42 g
Δ fat mass ([1]; female mice, 10 mg/kg/d): -1.87 ± 0.22 g
Δ lean mass ([1]; female mice, 10 mg/kg/d): -3.76 ± 0.41 g
Average Δ body weight ([1]; female mice, 10 mg/kg/d): -137.4 ± 15.5 mg/day
Average Δ fat mass ([1]; female mice, 10 mg/kg/d): -41.4 ± 5.3 mg/day
Average Δ lean mass ([1]; female mice, 10 mg/kg/d): -121.3 ± 25.7 mg/day
Δ body weight ([1]; female mice, 20 mg/kg/d): -4.85 ± 0.55 g
Δ fat mass ([1]; female mice, 20 mg/kg/d): -1.71 ± 0.26 g
Δ lean mass ([1]; female mice, 20 mg/kg/d): -4.55 ± 0.37 g
Average Δ body weight ([1]; female mice, 20 mg/kg/d): -105.2 ± 13.1 mg/day
Average Δ fat mass ([1]; female mice, 20 mg/kg/d): -35.6 ± 5.0 mg/day
Average Δ lean mass ([1]; female mice, 20 mg/kg/d): -85.2 ± 9.1 mg/day
Δ body weight ([1]; male mice, 10 mg/kg/d): -6.515 ± 0.65 g
Δ fat mass ([1]; male mice, 10 mg/kg/d): -1.57 ± 0.21 g
Δ lean mass ([1]; male mice, 10 mg/kg/d): -5.55 ± 0.47 g
Average Δ body weight ([1]; male mice, 10 mg/kg/d): -153.5 ± 16.1 mg/day
Average Δ fat mass ([1]; male mice, 10 mg/kg/d): -37.4 ± 6.4 mg/day
Average Δ lean mass ([1]; male mice, 10 mg/kg/d): -129.7 ± 9.9 mg/day
Δ body weight ([1]; male mice, 20 mg/kg/d): -5.53 ± 0.57 g
Δ fat mass ([1]; male mice, 20 mg/kg/d): -1.48 ± 0.16 g
Δ lean mass ([1]; male mice, 20 mg/kg/d): -5.12 ± 0.38 g
Average Δ body weight ([1]; male mice, 20 mg/kg/d): -116.0 ± 13.7 mg/day
Average Δ fat mass ([1]; male mice, 20 mg/kg/d): -29.9 ± 3.5 mg/day
Average Δ lean mass ([1]; male mice, 20 mg/kg/d): -106.4 ± 8.5 mg/day
BAT (brown adipose tissue) ([2]; all mice, 10 mg/kg/d): 44.5 ± 3.4 mg
EDL (extensor digitorum longus) ([2]; all mice, 10 mg/kg/d): 6.53 ± 0.47 mg
soleus ([2]; all mice, 10 mg/kg/d): 4.49 ± 0.36 mg
Heart ([2]; all mice, 10 mg/kg/d): 101.2 ± 2.7 mg
gastrocnemius ([2]; all mice, 10 mg/kg/d): 50.8 ± 3.3 mg
BAT (brown adipose tissue) ([2]; all mice, 20 mg/kg/d): 43.3 ± 4.1 mg
EDL (extensor digitorum longus) ([2]; all mice, 20 mg/kg/d): 5.89 ± 0.31 mg
soleus ([2]; all mice, 20 mg/kg/d): 5.49 ± 0.34 mg
Heart ([2]; all mice, 20 mg/kg/d): 100.7 ± 3.8 mg
gastrocnemius ([2]; all mice, 20 mg/kg/d): 47.0 ± 2.6 mg
BAT (brown adipose tissue) ([2]; female mice, 10 mg/kg/d): 42.1 ± 4.6 mg
EDL (extensor digitorum longus) ([2]; female mice, 10 mg/kg/d): 6.45 ± 0.75 mg
soleus ([2]; female mice, 10 mg/kg/d): 4.23 ± 0.51 mg
Heart ([2]; female mice, 10 mg/kg/d): 94.4 ± 3.4 mg
gastrocnemius ([2]; female mice, 10 mg/kg/d): 47.5 ± 4.1 mg
BAT (brown adipose tissue) ([2]; female mice, 20 mg/kg/d): 32.6 ± 1.9 mg
EDL (extensor digitorum longus) ([2]; female mice, 20 mg/kg/d): 5.98 ± 0.47 mg
soleus ([2]; female mice, 20 mg/kg/d): 5.09 ± 0.52 mg
Heart ([2]; female mice, 20 mg/kg/d): 88.5 ± 4.6 mg
gastrocnemius ([2]; female mice, 20 mg/kg/d): 43.6 ± 4.2 mg
BAT (brown adipose tissue) ([2]; male mice, 10 mg/kg/d): 46.7 ± 4.9 mg
EDL (extensor digitorum longus) ([2]; male mice, 10 mg/kg/d): 6.59 ± 0.61 mg
soleus ([2]; male mice, 10 mg/kg/d): 4.74 ± 0.51 mg
Heart ([2]; male mice, 10 mg/kg/d): 107.4 ± 3.4 mg
gastrocnemius ([2]; male mice, 10 mg/kg/d): 53.8 ± 5.1 mg
BAT (brown adipose tissue) ([2]; male mice, 20 mg/kg/d): 53.9 ± 6.8 mg
EDL (extensor digitorum longus) ([2]; male mice, 20 mg/kg/d): 5.81 ± 0.42 mg
soleus ([2]; male mice, 20 mg/kg/d): 5.84 ± 0.45 mg
Heart ([2]; male mice, 20 mg/kg/d): 112.0 ± 4.1 mg
gastrocnemius ([2]; male mice, 20 mg/kg/d): 49.9 ± 3.0 mg
HR survival (FIG. 14) ([3]; 10 mg/kg/day vs. placebo): 0.57
HR survival (FIG. 14) [3, 5]: 1.32
HR survival (FIG. 14) ([3]; 20 mg/kg/day vs. placebo): 0.54
HR survival (FIG. 16) ([3]; 10 mg/kg/day vs. placebo): 0.60
HR survival (FIG. 16) [3, 5]: 1.26
HR survival (FIG. 16) ([3]; 20 mg/kg/day vs. placebo): 0.41
HR survival (FIG. 15) ([3]; 10 mg/kg/day vs. placebo): 0.49
HR survival (FIG. 15) [3, 5]: 1.24
HR survival (FIG. 15) ([3]; 20 mg/kg/day vs. placebo): 0.41
HR Progression from score 1 to score 2 (FIG. 17) ([4]; 10 mg/kg/day vs. placebo): 0.47
HR Progression from score 1 to score 3 (FIG. 19) ([4]; 10 mg/kg/day vs. placebo): 0.60
HR Progression from score 2 to score 3 (FIG. 18) ([4]; 10 mg/kg/day vs. placebo): 1.04
HR Progression from score 1 to score 2 (FIG. 17) ([4]; 20 mg/kg/day vs. placebo): 0.54
HR Progression from score 1 to score 3 (FIG. 19) ([4]; 20 mg/kg/day vs. placebo): 0.63
HR Progression from score 2 to score 3 (FIG. 18) ([4]; 20 mg/kg/day vs. placebo): 0.74

CC(C)NCC(O)COc1cccc2[nH]ccc12 (stereo not shown) [S-pindolol]
Median survival after onset of ALS symptoms ([3]; 3 mg/kg/day, placebo 28 days): 31 days
